Common to all, as to format: biochemical
The target of one experiment is T1, aggrecanase-1 (Homo sapiens, UniProt O75173).
T1 sequence (O75173 213-837): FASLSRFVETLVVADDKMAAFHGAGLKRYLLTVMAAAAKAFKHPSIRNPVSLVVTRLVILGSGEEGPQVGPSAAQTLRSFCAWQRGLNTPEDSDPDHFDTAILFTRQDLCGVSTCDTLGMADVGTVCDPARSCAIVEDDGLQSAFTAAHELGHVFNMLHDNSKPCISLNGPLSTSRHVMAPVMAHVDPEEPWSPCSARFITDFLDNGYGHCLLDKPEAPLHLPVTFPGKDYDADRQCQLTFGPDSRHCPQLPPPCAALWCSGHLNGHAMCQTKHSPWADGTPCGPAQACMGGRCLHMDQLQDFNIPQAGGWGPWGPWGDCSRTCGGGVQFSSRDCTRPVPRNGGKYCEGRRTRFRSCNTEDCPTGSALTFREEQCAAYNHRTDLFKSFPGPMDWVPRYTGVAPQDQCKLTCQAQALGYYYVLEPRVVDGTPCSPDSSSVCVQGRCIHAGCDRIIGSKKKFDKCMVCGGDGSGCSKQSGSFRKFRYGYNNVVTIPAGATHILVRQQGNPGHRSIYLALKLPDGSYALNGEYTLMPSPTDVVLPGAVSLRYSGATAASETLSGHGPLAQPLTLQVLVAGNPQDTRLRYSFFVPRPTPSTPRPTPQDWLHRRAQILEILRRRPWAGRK
Nature of the experiment: Aggrecanase-1 inhibitory action (Particle Assay, GAG release from aggrecan-containing polyacrylamide particles). As to conditions: Experimental Example 1; read-out: IC50 AG1. Summed up: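 Readout was dimethylmethylene blue absorbance (595 nm) of glycosaminoglycan liberated into supernatant, calibrated with whale chondroitin sulfate. Substrate was aggrecan in polyacrylamide particles, digested 15 h at 37° C in Tris-HCl; TC50 (μM) derived from inhibition relative to no-enzyme and no-inhibitor controls.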

For another experiment, the target named is T2, MMP-1 (Homo sapiens, UniProt P03956).
T2 sequence (P03956 100-469): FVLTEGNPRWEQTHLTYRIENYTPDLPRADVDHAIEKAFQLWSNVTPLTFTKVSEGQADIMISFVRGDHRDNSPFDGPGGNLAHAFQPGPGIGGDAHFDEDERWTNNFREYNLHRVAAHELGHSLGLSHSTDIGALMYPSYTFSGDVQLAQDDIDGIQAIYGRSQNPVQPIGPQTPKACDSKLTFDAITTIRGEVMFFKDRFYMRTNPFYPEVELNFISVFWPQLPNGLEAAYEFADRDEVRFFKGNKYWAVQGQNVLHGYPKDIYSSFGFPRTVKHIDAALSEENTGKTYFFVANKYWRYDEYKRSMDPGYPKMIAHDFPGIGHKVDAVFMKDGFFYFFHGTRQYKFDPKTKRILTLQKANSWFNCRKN
Nature of the experiment: MMP-1 inhibitory action (Type I collagen Activity Measurement kit, FITC-labeled collagen type I). The note with it: Experimental Example 2; read-out: IC50 MMP1.

The target of the next experiment is T3, Recombinant Human MMP-13 (Homo sapiens, UniProt P45452).
T3 construct: purchased R&D systems 511-MM
Description: MMP-13 inhibitory activity (MMP-13 specific fluorescent substrate with quencher). As to conditions: Experimental Example 3; read-out: IC50 MMP13. The gist of the method: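 IC50 (μM) derived from % inhibition, normalised to wells without enzyme and without inhibitor, fluorescence read at 325/405 nm. Enzyme and compound preceded addition of the quenched 7-MCA…DPA substrate; Tris-HCl buffer, 25 °C for 1 h, acetic-acid stop.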

Regarding `NCCc1ccc([C@H]2C[C@@]2(NS(=O)(=O)c2ccc(-c3cc(C(F)(F)F)on3)s2)C(N)=O)cc1` [Example 2-300], the IC50 at aggrecanase-1 is < 1000 nM; on MMP-1 it was ≥ 1000 nM; on Recombinant Human MMP-13, < 100 nM.
On the same counts, the results for `O=C(O)[C@@]1(NS(=O)(=O)c2ccc(-c3cc(C(F)(F)F)on3)s2)C[C@H]1c1ccc(CCO)cc1` [Example 2-301] are < 100 nM, ≥ 1000 nM and < 100 nM.
On the same counts, the results for `O=C(O)[C@]1(NS(=O)(=O)c2ccc(-c3cc(C(F)(F)F)on3)s2)C[C@@H]1c1ccc(CCCO)cc1` [Example 2-302] are < 100 nM, < 1000 nM and < 100 nM.
On the same counts, the results for `CN(C)C(=O)OCCC1(c2ccccc2)CC1(NS(=O)(=O)c1ccc(-c2ccc(Cl)cc2)s1)C(=O)O` (stereo not drawn) [Example 2-303] are < 100 nM, ≥ 1000 nM and < 100 nM.
As for `CC(C)N1CCN(Cc2cccc([C@H]3C[C@@]3(NS(=O)(=O)c3ccc(-c4cc(C(F)(F)F)on4)s3)C(=O)O)c2)CC1` [Example 2-304], the IC50 on aggrecanase-1 was < 1000 nM; on MMP-1, ≥ 1000 nM; on Recombinant Human MMP-13, < 1000 nM.
As for `O=C(O)C1(NS(=O)(=O)c2ccc(-c3cc(C(F)(F)F)on3)s2)C2CCCc3ccccc3C21` (stereo not drawn) [Example 2-305], the IC50 at aggrecanase-1 is < 100 nM; on MMP-1, ≥ 1000 nM; on Recombinant Human MMP-13 it was < 100 nM.
Regarding `O=C(OCC1(c2ccccc2)CC1(NS(=O)(=O)c1ccc(-c2cc(C(F)(F)F)on2)s1)C(=O)O)N1CCOCC1` (stereo not drawn) [Example 2-306], the IC50 was < 1000 nM at aggrecanase-1, ≥ 1000 nM on MMP-1 and < 1000 nM on Recombinant Human MMP-13.
Regarding `O=C(c1ccc(Cl)cc1)c1ccc(S(=O)(=O)N[C@@]2(C(=O)O)C[C@@H]2c2ccccc2)s1` [Example 2-307], the results for the IC50 on aggrecanase-1, at MMP-1 and on Recombinant Human MMP-13 were ≥ 1000 nM, ≥ 10000 nM and ≥ 1000 nM, respectively.
Regarding `CC(C)OCCNC(=O)OCC1(c2ccccc2)CC1(NS(=O)(=O)c1ccc(-c2cc(C(F)(F)F)on2)s1)C(=O)O` (stereo not drawn) [Example 2-308], the IC50 was < 1000 nM at aggrecanase-1, ≥ 1000 nM on MMP-1 and < 1000 nM at Recombinant Human MMP-13.
Take `O=C(NC[C@H]1CCCO1)OCC1(c2ccccc2)CC1(NS(=O)(=O)c1ccc(-c2cc(C(F)(F)F)on2)s1)C(=O)O` (stereo partly drawn) [Example 2-309]: the IC50 was < 1000 nM at aggrecanase-1, ≥ 1000 nM at MMP-1 and < 1000 nM on Recombinant Human MMP-13.
As for `O=C(OCC1(c2ccccc2)CC1(NS(=O)(=O)c1ccc(-c2cc(C(F)(F)F)on2)s1)C(=O)O)N1CCCCC1` (stereo not drawn) [Example 2-310], the IC50 at aggrecanase-1 was < 1000 nM; at MMP-1 it was < 1000 nM; at Recombinant Human MMP-13, < 100 nM.
As for `Cc1cc(C2CC2(NS(=O)(=O)c2ccc(-c3cc(C(F)(F)F)on3)s2)C(=O)O)on1` (stereo not drawn) [Example 2-311], the IC50 on aggrecanase-1 was < 1000 nM; at MMP-1, ≥ 1000 nM; on Recombinant Human MMP-13, < 1000 nM.
Consider `O=C1OCC2C(c3ccccc3)C12NS(=O)(=O)c1ccc(-c2cc(C(F)(F)F)on2)s1` (stereo not drawn) [Example 2-312], for which the IC50 at aggrecanase-1 was ≥ 1000 nM; at MMP-1 it was ≥ 10000 nM; at Recombinant Human MMP-13, ≥ 10000 nM.
Consider `Cc1cc(C2CC2(NS(=O)(=O)c2ccc(-c3cc(C(F)(F)F)on3)s2)C(=O)O)no1` (stereo not drawn) [Example 2-313], for which the results for the half-maximal inhibitory concentration (IC50) on aggrecanase-1, on MMP-1 and at Recombinant Human MMP-13 were < 1000 nM, ≥ 1000 nM and < 1000 nM, respectively.
With `Cc1cc(C2CC2(NS(=O)(=O)c2ccc(-c3cc(C(F)(F)F)on3)s2)C(=O)O)no1` (stereo not drawn) [Example 2-314], the IC50 on aggrecanase-1 was ≥ 1000 nM; at MMP-1, ≥ 10000 nM; on Recombinant Human MMP-13 it was ≥ 10000 nM.
For the compound `O=C(O)C1(NS(=O)(=O)c2ccc(-c3cc(C(F)(F)F)on3)s2)CC1c1cc(CCO)on1` (stereo not drawn) [Example 2-315], the IC50 on aggrecanase-1 was < 1000 nM; on MMP-1, ≥ 10000 nM; on Recombinant Human MMP-13, < 1000 nM.
Consider `O=C(O)C1(NS(=O)(=O)c2ccc(-c3cc(C(F)(F)F)on3)s2)CC1c1cc(CCO)on1` (stereo not drawn) [Example 2-316], for which the IC50 at aggrecanase-1 was ≥ 1000 nM; on MMP-1, ≥ 10000 nM; at Recombinant Human MMP-13, ≥ 10000 nM.
For `O=C(O)C1(NS(=O)(=O)c2ccc(-c3cc(C(F)(F)F)on3)s2)CC1c1cc(CO)on1` (stereo not drawn) [Example 2-317], the half-inhibitory concentration (IC50) was < 1000 nM on aggrecanase-1, ≥ 1000 nM at MMP-1 and < 1000 nM at Recombinant Human MMP-13.
For `O=C(O)C1(NS(=O)(=O)c2ccc(-c3cc(C(F)(F)F)on3)s2)CC1c1cc(CO)on1` (stereo not drawn) [Example 2-318], the values for the IC50 on aggrecanase-1, at MMP-1 and on Recombinant Human MMP-13 were ≥ 1000 nM, ≥ 10000 nM and ≥ 10000 nM, respectively.
Take `CC(C)C(=O)NCCCC1(c2ccccc2)CC1(NS(=O)(=O)c1ccc(-c2ccc(Cl)cc2)s1)C(=O)O` (stereo not drawn) [Example 2-319]: the results for the IC50 on aggrecanase-1, at MMP-1 and on Recombinant Human MMP-13 were < 100 nM, ≥ 1000 nM and < 100 nM, respectively.
`CN(C)C(=O)OCC1(c2ccccc2)CC1(NS(=O)(=O)c1ccc(-c2cc(C(F)(F)F)on2)s1)C(=O)O` (stereo not drawn) [Example 2-320]: the results for the IC50 on aggrecanase-1, at MMP-1 and at Recombinant Human MMP-13 were < 1000 nM, ≥ 1000 nM and < 1000 nM, respectively.
Regarding `CCNC(=O)OCC1(c2ccccc2)CC1(NS(=O)(=O)c1ccc(-c2cc(C(F)(F)F)on2)s1)C(=O)O` (stereo not drawn) [Example 2-321], the concentration for half-maximal inhibition (IC50) is < 1000 nM at aggrecanase-1, ≥ 1000 nM at MMP-1 and < 1000 nM on Recombinant Human MMP-13.
Take `O=C(O)C1(NS(=O)(=O)c2ccc(-c3cc(C(F)(F)F)on3)s2)CC1(CN1CCOCC1)c1ccccc1` (stereo not drawn) [Example 2-322]: the IC50 at aggrecanase-1 is < 100 nM; at MMP-1 it was ≥ 1000 nM; on Recombinant Human MMP-13 it was < 1000 nM.
The matching figures for `CC1[C@H](c2ccccc2)[C@]1(NS(=O)(=O)c1ccc(-c2cc(C(F)(F)F)on2)s1)C(=O)NO` (stereo partly drawn) [Example 2-323]: ≥ 1000 nM, ≥ 1000 nM and < 100 nM.
Consider `CC1[C@H](c2ccccc2)[C@]1(NS(=O)(=O)c1ccc(OCc2ccc(Cl)cc2Cl)cc1)C(=O)O` (stereo partly drawn) [Example 2-324], for which the figures for the IC50 at aggrecanase-1, at MMP-1 and on Recombinant Human MMP-13 were ≥ 1000 nM, ≥ 10000 nM and ≥ 1000 nM, respectively.
On to `CC1[C@H](c2ccccc2)[C@]1(NS(=O)(=O)c1ccc(OCc2ccc(Cl)cc2Cl)cc1)C(=O)NO` (stereo partly drawn) [Example 2-325], for which the IC50 at aggrecanase-1 is ≥ 1000 nM; at MMP-1 it was ≥ 10000 nM; on Recombinant Human MMP-13, ≥ 1000 nM.
Turning to `CC1C(c2ccccc2)C1(NS(=O)(=O)c1ccc(-c2ccc(Cl)cc2)s1)C(=O)O` (stereo not drawn) [Example 2-326], the IC50 at aggrecanase-1 is < 1000 nM; at MMP-1, ≥ 1000 nM; at Recombinant Human MMP-13, < 1000 nM.
For the compound `CCC1[C@@H](c2ccccc2)[C@@]1(NS(=O)(=O)c1ccc(-c2cc(C(F)(F)F)on2)s1)C(=O)O` (stereo partly drawn) [Example 2-327], the results for the IC50 on aggrecanase-1, on MMP-1 and on Recombinant Human MMP-13 were < 1000 nM, < 1000 nM and < 100 nM, respectively.
Turning to `CCC1[C@H](c2ccccc2)[C@]1(NS(=O)(=O)c1ccc(-c2cc(C(F)(F)F)on2)s1)C(=O)O` (stereo partly drawn) [Example 2-328], the IC50 on aggrecanase-1, at MMP-1 and on Recombinant Human MMP-13 was < 100 nM in each case.
As to `O=C(O)C1(NS(=O)(=O)c2ccc(-c3cc(C(F)(F)F)on3)s2)CC1(CN1CCCC1)c1ccccc1` (stereo not drawn) [Example 2-329], the IC50 at aggrecanase-1 was ≥ 1000 nM; on MMP-1, ≥ 10000 nM; at Recombinant Human MMP-13, ≥ 1000 nM.
In the case of `O=C(O)C1(NS(=O)(=O)c2ccc(-c3cc(C(F)(F)F)on3)s2)CC1(CN1CCCCC1)c1ccccc1` (stereo not drawn) [Example 2-330], the IC50 was ≥ 1000 nM on aggrecanase-1, ≥ 10000 nM at MMP-1 and ≥ 1000 nM on Recombinant Human MMP-13.
`O=C(NC1CC1)OCC1(c2ccccc2)CC1(NS(=O)(=O)c1ccc(-c2cc(C(F)(F)F)on2)s1)C(=O)O` (stereo not drawn) [Example 2-331]: the IC50 is < 1000 nM at aggrecanase-1, ≥ 1000 nM at MMP-1 and < 1000 nM on Recombinant Human MMP-13.
Consider `CN(CCO)C(=O)OCC1(c2ccccc2)CC1(NS(=O)(=O)c1ccc(-c2cc(C(F)(F)F)on2)s1)C(=O)O` (stereo not drawn) [Example 2-332], for which the IC50 at aggrecanase-1 is < 1000 nM; at MMP-1, ≥ 1000 nM; on Recombinant Human MMP-13, < 1000 nM.

By IC50 is commonly meant the midpoint of a concentration-inhibition curve.

(Values after US20080261994A1, “CYCLOPROPANE COMPOUNDS AND PHARMACEUTICAL USE THEREOF” (Japan Tobacco Inc., priority 2003, published 2008).)
